Results on 17 compounds are retold here after patent publication US7943628B2, “Pyrimidine derivatives” (Pfizer Limited, priority 2005, dated 2011).

The target in this assay is T1, histamine H4 receptor (Homo sapiens, UniProt Q9H3N8).
T1 construct: expressed in transfected cells; host or cells: CHO cells
Description: H4 binding, method 1 ([3H]-histamine filtration binding on CHO cell membranes). Conditions: for Ki: H4 binding, method 1, Ki calculated from IC50 (Cheng-Prussoff). The procedure, abridged:
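Membranes from CHO cells expressing human H4 receptor (20-35 μg/well) incubated 90 min at room temperature with 3 nM [3H]-histamine in 50 mM Tris-HCl pH 7.4, ± competitor. Bound label separated by filtration on PEI-soaked GF/B filters and counted by scintillation; non-specific binding with 10 μM JNJ7777120.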

T1 sequence (Q9H3N8 whole entry): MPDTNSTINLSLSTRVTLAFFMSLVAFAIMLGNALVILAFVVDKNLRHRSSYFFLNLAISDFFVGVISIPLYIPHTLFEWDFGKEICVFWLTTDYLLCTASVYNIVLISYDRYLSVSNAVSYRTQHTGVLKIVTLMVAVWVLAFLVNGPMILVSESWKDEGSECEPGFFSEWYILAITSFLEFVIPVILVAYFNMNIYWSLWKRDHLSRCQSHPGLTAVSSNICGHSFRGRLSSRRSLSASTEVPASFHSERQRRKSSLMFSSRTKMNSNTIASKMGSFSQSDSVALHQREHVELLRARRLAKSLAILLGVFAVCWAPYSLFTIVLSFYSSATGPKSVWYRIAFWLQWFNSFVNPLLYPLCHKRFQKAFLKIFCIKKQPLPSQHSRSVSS

Turning to `CC(C)NC1CN(c2cc(NCC(C)(C)C)ncn2)C1` [Example 226, N-(2,2-Dimethylpropyl)-6-[3-(isopropylamino)azetidin-1-yl]pyrimidin-4-amine], the Ki was 113 nM.

On to `CNCC1CN(c2cc(NCC3CC3)nc(N)n2)C1` [Example 227, N^4-(Cyclopropylmethyl)-6-{3-[(methylamino)methyl]azetidin-1-yl}pyrimidine-2,4-diamine], for which the inhibition constant Ki was 115 nM.

For the compound `C[C@H]1CN(c2cc(NCc3cccc(F)c3)nc(N)n2)CCN1` [Example 228, N^4-(3-Fluorobenzyl)-6-[(3S)-3-methylpiperazin-1-yl]pyrimidine-2,4-diamine], the Ki was 117 nM.

For `CC(C)CNc1cc(N2CCC(N)CC2)nc(N)n1` [Example 229, 6-(4-Aminopiperidin-1-yl)-N^4-isobutylpyrimidine-2,4-diamine], the Ki was 127 nM.

Regarding `Nc1nc(NC2CCC2)cc(N2C[C@H]3CCCN[C@H]3C2)n1` [Example 230, N^4-Cyclobutyl-6-[(4aR,7aR)-octahydro-6H-pyrrolo[3,4-b]pyridin-6-yl]pyrimidine-2,4-diamine], the Ki is 127 nM.

For `CC(C)Nc1cc(N2CCC3NCCC3C2)nc(N)n1` (centres unmarked) [Example 231, N^4-Isopropyl-6-(octahydro-5H-pyrrolo[3,2-c]pyridin-5-yl)pyrimidine-2,4-diamine], the Ki was 131 nM.

On to `CCCNc1cc(N2CC(N)C2)nc(N)n1` [Example 232, 6-(3-Aminoazetidin-1-yl)-N^4-propylpyrimidine-2,4-diamine], for which the Ki was 13.9 nM.

Regarding `CNC1CN(c2cc(NCc3ccc(F)c(F)c3)nc(N)n2)C1` [Example 233, N^4-(3,4-Difluorobenzyl)-6-[3-(methylamino)azetidin-1-yl]pyrimidine-2,4-diamine], the Ki is 30.4 nM.

Turning to `CC(C)Nc1cc(N2CCC(N)CC2)nc(N)n1` [Example 234, 6-(4-Aminopiperidin-1-yl)-N^4-isopropylpyrimidine-2,4-diamine], the Ki was 177 nM.

With `CN[C@@H]1CCN(c2cc(NCCC(F)(F)F)nc(N)n2)C1` [Example 235, 6-[(3R)-3-(Methylamino)pyrrolidin-1-yl]-N^4-(3,3,3-trifluoropropyl)pyrimidine-2,4-diamine], the Ki is 198 nM.

Take `CNC1CN(c2cc(N3CC(F)(F)C3)nc(N)n2)C1` [Example 236, 4-(3,3-Difluoroazetidin-1-yl)-6-[3-(methylamino)azetidin-1-yl]pyrimidin-2-amine]: the Ki was 205 nM.

Regarding `C[C@@H]1CN(c2cc(NCc3ccccc3F)nc(N)n2)CCN1` [Example 237, N^4-(2-Fluorobenzyl)-6-[(3R)-3-methylpiperazin-1-yl]pyrimidine-2,4-diamine], the Ki is 211 nM.

As for `CC(C)Nc1cc(N2C[C@H]3CNC[C@H]3C2)nc(N)n1` [Example 238, 6-[(3aR*,6aS*)-Hexahydropyrrolo[3,4-c]pyrrol-2(1H )-yl]-N^4-isopropylpyrimidine-2,4-diamine], the Ki is 222 nM.

`CN1CCCN(c2cc(NCC(C)(C)C)ncn2)CC1` [Example 239, N-(2,2-Dimethylpropyl)-6-(4-methyl-1,4-diazepan-1-yl)pyrimidin-4-amine]: the Ki is 235 nM.

For the compound `C[C@H]1CN(c2cc(NCc3ccc(F)cc3)nc(N)n2)CCN1` [Example 240, N^4-(4-Fluorobenzyl)-6-[(3S)-3-methylpiperazin-1-yl]pyrimidine-2,4-diamine], the Ki is 238 nM.

Turning to `CC(C)Nc1cc(N2C[C@H]3CN(C)C[C@H]3C2)nc(N)n1` [Example 241, N^4-Isopropyl-6-[(3aR*,6aS*)-5-methylhexahydropyrrolo[3,4-c]pyrrol-2(1H)-yl]pyrimidine-2,4-diamine], where the note is “at 1 μM”, the “Method 1, % at 1 μM” value was 45% at 1 μM.

Regarding `CNC1CN(c2cc(N3CCOC[C@@H]3C)nc(N)n2)C1` [Example 242, 4-[3-(Methylamino)azetidin-1-yl]-6-[(3S)-3-methylmorpholiN^4-yl]pyrimidin-2-amine], the Ki is 258 nM.
